Source: patent US20200282009A1, “METHODS OF TREATING DISEASES ASSOCIATED WITH VASCULAR SMOOTH MUSCLE CELL PROLIFERATION” (BioLineRx Ltd., priority 2017, published 2020)

Tests used:
Assay type in all cases: cell-based, human
SK-N-BE(2)-CXCR4 cells = experiment: Cell survival assay (PI staining, FACS); conditions: SK-N-BE(2)-CXCR4 compared to native cell line; 0-10 μM, 24 hours
Method: A total of 1×10^5 cells/mL were cultured in 24-well plates with […] RPMI 1640 medium supplemented with 10% FCS. 24 hours later, the medium was changed to RPMI 1640 supplemented with either 1% FCS, with BL-8040 or AMD3100 or ABT199. Then 24 hours later, the cells were harvested, washed, and stained with PI (Sigma). The number of live cells was counted and analyzed using FACS analysis.
In order to stably overexpress CXCR4, SK-N-BE(2) cells were transduced with the lentiviral bicistronic vector harboring a CXCR4 expression cassette. This was done using a three-plasmid system: pHR′-CMVCXCR4-IRES-GFP-WPRE; envelope coding plasmid VSV-G and a packaging construct CMVDR8.91 according to previously published protocol (23). For transduction of SK-N-BE(2) cells, 1 ml of viral supernatant was used, which is equivalent to an m.o.i. of ˜9.

SK-N-BE(2) cells [1] = experiment: Cell proliferation assay with CXCL12
Method: (§1) Cells were seeded at 2×10^4 cells/1 ml per well into a 24-well plate in medium supplemented with 0.1% FCS with or without various concentrations of CXCL12 (PeproTech EC). On days 2, 4 and 7, cells were harvested, stained with propidium iodide (PI, Sigma), and the number of viable cells was determined using FACS analysis.

Shy-SY5Y cells = experiment: Cell proliferation assay with CXCL12; conditions: CXCL12 500 ng/ml
Method: as §1

SK-N-BE(2) cells [2] = experiment: Soft agar colony assay; conditions: CXCL12 100 ng/ml, 14 days
Method: An agar base layer was prepared as follows: 45 mL RPMI plus 12% FCS was mixed with 15 mL RPMI 32 plus 12% FCS and 15 mL 2.5% agar in double-distilled water. The tumor cells were suspended in RPMI plus 10% FCS. Cell suspension was mixed in a ratio of 1:3 with the agar base solution. This mixture was then plated on top of a preformed solid agar base. CXCL12 (100 ng/mL) or BL-8040 (20 μM) or anti-CXCR4 (1 μg/ml) were added to the mixture. Fourteen days later, the number of colonies was counted in 10 different fields.

[3] = test system: BCL-2 and CCND1 in SK-N-BE(2) cells; experiment: qPCR of target genes after miR transfection
Method: cDNA was synthesized from 0.5-1 μg total RNA using the Quanta Biosciences qScript™ cDNA Synthesis Kit (95047-100) for mRNA analysis, and using the qScript™ microRNA cDNA Synthesis Kit (95107-100) for miRNAs analysis. Quantiative PCR (qPCR) of miRNAs and mRNA was performed using the CFX384, C1000 touch thermal cycler (Bio-Rad) and a SYBR Green PCR Kit: Quanta Cat. #84018 and #84071, respectively. The fold expression and statistical significance were calculated using the 2-ΔΔ Ct method. All experiments were performed in triplicate.
Transfections were performed using Lipofectamine 2000 transfection reagent (Invitrogen) according to the manufacturer's protocol. Plasmids were purchased from Dharmacon. MiR-15a: miRIDIAN microRNA hsa-miR-15a-5p mimic. MiR-16-1: miRIDIAN microRNA hsa-miR-16-5p mimic. Negative control miR: miRIDIAN microRNA inhibitor negative control. AntagomiR-15a: miRIDIAN microRNA hsa-miR-15a-5p hairpin inhibitor. AntagomiR-16-1: miRIDIAN microRNA hsa-miR-16-5p hairpin inhibitor. AntagomiR negative control: miRIDIAN microRNA hairpin inhibitor negative control 1. All miRNA-mimics and antagomiRs were transfected at 50 nM or 100 nM. To determine the efficiency of transfection, at 48 hours post-transfection, the cells were analyzed for RNA.

CC1(C)CCC(CN2CCN(c3ccc(C(=O)NS(=O)(=O)c4ccc(NCC5CCOCC5)c([N+](=O)[O-])c4)c(Oc4cnc5[nH]ccc5c4)c3)CC2)=C(c2ccc(Cl)cc2)C1 [ABT-199, reference compound] was tested, and the “resistance to the BCL-2 inhibitor (viability)” value (SK-N-BE(2)-CXCR4 cells) was “high resistance”.

For “CXCL12: the ligand of CXCR4 (PeproTech EC)”, the “proliferation with CXCL12” value (SK-N-BE(2) cells [1]) was “no response”, the “proliferation with CXCL12” value (Shy-SY5Y cells) was “increased proliferation” and the “colony formation with CXCL12” value (SK-N-BE(2) cells [2]) was “high colony formation ability”.

“miR-16-1: miRIDIAN microRNA hsa-miR-16-5p mimic (guide TAGCAGCACGTAAATATTGGCG; mimic duplex; passenger strand missing)” was tested, and the “level of both target genes (BCL-2 and CCND1) after transfection” value [3] was “reduction”.
